Test results reported in patent publication US11591300B2, “Oxazole containing compounds as activators of IDO1 and AhR” (The Brigham and Women's Hospital, Inc., priority 2017, dated 2023).
“Also recorded” adds a separate entry of the source. Read-outs that look alike come from different tables or passages of the source. Values belong to the compound of their own block, whether it stands above or below them.

What was measured:
MODE-K cells [1] = assay: Surface CD1d loaded with α-GC (L363 antibody staining) in MODE-K cells; type: cell-based, mouse; details: for compound induced reduction of cell surface CD1d lipid antigen loading when AhR expression is silenced: AhR siRNA
Description: (§1) In light of the decreased MTP expression observed in oxazolone treated IECs (FIG. 1B) and given that MTP loss alters the ability of CD1d to acquire exogenous antigens, such as α-GC, and CD1d elicited IL-10 responses by epithelial cells (Dougan et al. 2005, Dougan et al. 2007, Zeissig et al 2017, Sagiv et al. 2007, Brozovic et al. 2004, Olszak et al. 2014), it was investigated whether CD1d expression and lipid loading on oxazolone conditioned IECs.

MODE-K cells [2] = assay: CD1d-restricted IL-10 production in MODE-K:NKT cell hybridoma co-culture; type: cell-based, mouse; details: for compound induced inhibition of CD1d-restricted IL-10 production when AhR expression is silenced / decrease of IL-10 production when AhR was silenced: AhR siRNA; for compound induced inhibition of CD1d-restricted IL-10 production when AhR expression is silenced: IEC:iNKT cell co-cultures; for IL-10 production / decrease of IL-10 production when AhR was silenced: tryptophan-deficient conditions supplemented with kyneurenic acid; for epithelial derived IL-10: no exogenous α-GC
recombinant IDO1 = recombinant IDO1 (Homo sapiens, UniProt P14902); assay: Recombinant IDO1 conversion of L-tryptophan to formyl-kyneurenine; type: biochemical; details: compared to control (TMC) or vehicle
recombinant IDO1, sequence (P14902 whole entry, species assumed): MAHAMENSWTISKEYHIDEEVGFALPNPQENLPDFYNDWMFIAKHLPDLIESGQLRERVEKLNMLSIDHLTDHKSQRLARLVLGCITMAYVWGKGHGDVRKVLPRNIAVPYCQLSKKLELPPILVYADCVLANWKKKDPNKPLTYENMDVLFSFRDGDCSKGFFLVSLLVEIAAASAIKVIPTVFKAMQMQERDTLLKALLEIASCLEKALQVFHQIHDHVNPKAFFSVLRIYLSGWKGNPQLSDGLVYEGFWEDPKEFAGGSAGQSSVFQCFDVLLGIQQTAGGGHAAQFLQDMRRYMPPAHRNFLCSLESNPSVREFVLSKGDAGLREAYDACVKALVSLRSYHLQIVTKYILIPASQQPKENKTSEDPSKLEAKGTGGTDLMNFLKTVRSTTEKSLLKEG

C57Bl/6 mice [3] = assay: Intra-rectal administration, colonic inflammation in vivo; set-up: species or system mouse; details: for IL-10 production in colonic explants: AhrΔIEC compared to wildtype controls, after intra-rectal challenge; for host protection, disease manifestations / weight loss: AhrΔIEC relative to Ahrfl/fl mice
Description: It was tested whether a dietary sourced minimal oxazole structure was sufficient to induce intestinal inflammation in vivo. […] To confirm this, the ability of oxazolone skin pre-sensitization to affect the responses to rectal challenge with TMO and vice-versa (FIG. 9D).
Next, it was tested whether B17 microcin derivatives could induce intestinal inflammation in vivo. Therefore, adequate quantities of a minimal B17 derivative (termed frag-oz, FIG. 2D) were synthesized to perform in vivo experiments and challenged animals via intra-rectal administration. […] These studies identify an oxazole containing microbial mimic that promotes CD1d-dependent intestinal inflammation independent of its classical anti-microbial activity.
These studies reveal a novel role for epithelial derived AhR signals in promoting mucosal inflammation when exposed to OxC.

MODE-K cells [4] = assay: Relative transcript abundance of target genes in MODE-K cells conditioned with compounds
Description: 4-ethoxymethylene-2-phenyl-2-oxazol-5-one, (referred to as oxazolone, FIG. 1A) has been widely utilized in models of contact hypersensitivity and when applied to the mucosa has been proposed to cause colitis through its properties as a hapten (Gorbachev and Fairchild 2001). However to date there is limited evidence for hapten-specific antibody production or responses following topical oxazolone sensitization or hapten modified autologous proteins or luminal antigens identified at mucosal sites (Singleton et al. 2016, Yanaba et al. 2008, Wirtz et al. 2007). […] It was then determined whether oxazolone could affect the expression of these transcripts in the intestinal epithelium in a cell intrinsic manner by directly stimulating an immortalized intestinal epithelial cell line (IEC) derived from mouse small intestine, MODE-K, with oxazolone.
To test this, a systematic in vitro system was devised to assess transcriptional and CD1d-restricted responses in IECs in response to stimulation with dietary OxC structures, including 2,4,5-trimethyl-2,5-dihydro-1,3-oxazole (referred to as TMO, FIG. 1A) found in coffee, peanuts, meats and utilized as a food additive, which lacks the 2-phenyl ring, 5-ketone, and 4-ethoxymethylene present in oxazolone (Vitzthum et al. 1975, Stoffesima et al. 1968, Lee et al. 1981, Chang et al. 1968, Ho and Hartman 1968).

human IDO1(hIDO1) = target: T1, human IDO1(hIDO1) (Homo sapiens, UniProt P14902); assay: In vitro screening assay for IDO1 enhancers; type: biochemical
T1 construct: made in house
T1 sequence (P14902 whole entry): as the sequence (P14902 whole entry, species assumed) above
Description: An in vitro screen for IDO1 enhancers was developed based on the following categories: Synthetic, dietary, and microbial compounds with structural similarity to oxazole template.
SDS-PAGE gel under reducing conditions showing that hIDO1 was purified to >95% purity after HiTrap HP chelating column.
HiPrep 16/60 Sephacryl S-200 HR column (GE Healthcare Life Sciences) size-exclusion chromatography in a buffer containing 10 mM HEPES buffer, 150 mM NaCl pH 7.0 of hIDO1 showing single peak and peak maximum of purified protein at 126.2 minutes.
Sizing fractions a3-a11 were checked for Heme absorbance at 402 and 280 nm. Fractions showing >2.0 Heme ratio were pooled and concentrated, and final 1.5 mg/ml concentrated protein was used for final bound heme estimation. A ratio of 2.22 at 402/280 nm confirmed heme binding to purified recombinant hIDO1 protein.

IECs = assay: LC-MS of deuterated L-trp (D5-Trp) metabolites in IEC lysates; type: cell-based; details: within 6 hours of exposure
Description: IDO1 is a rate-limiting enzyme involved in tryptophan catabolism that generates formyl-kyneurenine which can be further metabolized into a variety of AhR agonists (Higuchi and Hayaishi Arch Biochem Biophys 1967, Nguyen and Bradfield 2008, Zelante et al. 2014). […] To specifically identify these tryptophan derived products, IECs were cultured with deuterated L-trp (D5-Trp) and performed high performance liquid chromatography mass spectrometry (LC-MS) on lysates stimulated with oxazolone, TMO, frag-oz or TMC control (FIG. 5C). […] Taken together these latter studies are consistent with a model in which exposure of IECs to oxazole containing compounds leads to the activation of IDO1 and generation of tryptophan-derived metabolites that induce the AhR pathway to downregulate CD1d-restricted responses associated with the production of IL-10 (FIG. 6).

DNA gyrase = DNA gyrase (Escherichia coli, UniProt P0AES4+P0AES6); details: in vitro; literature (Collin et al. 2013; Yorgey et al. 1994, Li et al. 1996); cited from earlier work
primary hepatocytes = assay: IL-10 production from primary hepatocytes co-cultured with 24.7 iNKT hybridoma; details: response to iNKT cells in the presence of α-GC
[5] = target: T2, aryl hydrocarbon receptor (AhR) (Mus musculus, UniProt P30561); assay: AhR firefly luciferase reporter in IECs; type: cell-based; details: compared to vehicle or 1,2,4-trimethylcyclopentane
T2 construct: IECs were transfected with an AhR firefly luciferase reporter; endogenous in cells; host or cells: MODE-K (mouse intestinal epithelial cell line)
T2 sequence (P30561 10-848): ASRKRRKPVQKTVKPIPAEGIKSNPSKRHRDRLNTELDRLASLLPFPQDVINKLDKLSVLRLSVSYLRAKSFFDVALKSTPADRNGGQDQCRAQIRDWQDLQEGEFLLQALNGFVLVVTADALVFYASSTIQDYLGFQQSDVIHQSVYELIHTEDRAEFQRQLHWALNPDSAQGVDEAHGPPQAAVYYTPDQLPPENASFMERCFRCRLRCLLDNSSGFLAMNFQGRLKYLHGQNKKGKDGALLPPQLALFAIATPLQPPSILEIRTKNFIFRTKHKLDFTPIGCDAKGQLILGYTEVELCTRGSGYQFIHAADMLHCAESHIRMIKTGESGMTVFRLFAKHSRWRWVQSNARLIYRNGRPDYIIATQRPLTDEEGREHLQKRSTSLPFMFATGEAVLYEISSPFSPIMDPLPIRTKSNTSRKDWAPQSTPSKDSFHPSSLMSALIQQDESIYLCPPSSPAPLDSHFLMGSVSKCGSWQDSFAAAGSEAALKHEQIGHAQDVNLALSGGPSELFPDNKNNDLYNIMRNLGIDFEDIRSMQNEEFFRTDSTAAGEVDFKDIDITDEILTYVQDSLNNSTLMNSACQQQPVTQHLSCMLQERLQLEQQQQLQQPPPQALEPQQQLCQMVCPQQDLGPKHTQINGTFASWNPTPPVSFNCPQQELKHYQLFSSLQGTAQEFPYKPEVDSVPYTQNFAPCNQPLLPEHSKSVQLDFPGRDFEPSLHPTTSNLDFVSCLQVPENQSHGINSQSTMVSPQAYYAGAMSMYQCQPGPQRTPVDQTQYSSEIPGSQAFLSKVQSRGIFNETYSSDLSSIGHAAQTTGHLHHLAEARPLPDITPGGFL

[6] = test system: bone marrow-derived dendritic cells; assay: IFN-γ production in bone marrow-derived dendritic cell : 24.7 iNKT hybridoma co-culture; type: cell-based; details: bone marrow-derived dendritic cells with 24.7 iNKT hybridoma and α-GC
[7] = test system: epithelial enriched colon fractions; details: after intra-rectal oxazolone challenge; Olszak et al. 2014; cited from earlier work
MODE-K cells [8] = assay: Surface and intracellular CD1d protein expression in MODE-K cells (flow cytometry); type: cell-based, mouse; details: IECs stimulated with compound
Description: as §1

C57Bl/6 mice [9] = details: germ free animals; Olszak et al. 2012; cited from earlier work
[10] = IECs cultured in tryptophan-deficient media
[11] = tryptophan-deficient media supplemented with exogenous L-tryptophan
[12] = IEC enriched colonic fractions after intra-rectal administration
[13] = intra-rectal administration, wildtype
[14] = MODE-K cells conditioned with compound, normalized to β-actin

SMILES: CC(=O)NCc1nc(C(N)=O)co1 [frag-oz]
compound induced reduction of cell surface CD1d lipid antigen loading when AhR expression is silenced (MODE-K cells [1]): reversed
compound induced inhibition of CD1d-restricted IL-10 production when AhR expression is silenced (MODE-K cells [2]): reversed
CD1d-restricted IL-10 production (MODE-K cells [2]; [10]): no longer attenuated
IL-10 production (MODE-K cells [2]): decreased IL-10 production
decrease of IL-10 production when AhR was silenced (MODE-K cells [2]): reduced when AhR was silenced
CD1d-restricted IL-10 production (MODE-K cells [2]; [11]): attenuation of CD1d-restricted IL-10 production
ability of IDO1 to convert tryptophan to formyl-kyneurenine (recombinant IDO1): enhanced
IL-10 production in colonic explants (C57Bl/6 mice [3]): elevated IL-10 production
host protection, disease manifestations (C57Bl/6 mice [3]; intra-rectal challenge): conferred host protection
weight loss (C57Bl/6 mice [3]; intra-rectal challenge): diminished weight loss
Cyp1a1 transcripts in IEC in vivo (C57Bl/6 mice [3]; [12]): induction of Cyp1a1
Mttp transcripts in IEC in vivo (C57Bl/6 mice [3]; [12]): Decreased Mttp levels
inflammation in animals under GF conditions (C57Bl/6 mice [3]; germ free animals): induce inflammation
weight loss in GF animals compared to SPF animals (C57Bl/6 mice [3]; germ free vs SPF, intra-rectal challenge): increased weight loss
histopathology in GF animals (C57Bl/6 mice [3]; germ free, intra-rectal challenge): severe histopathology
Th1 and Th2 cytokines (IL-13, IFN-γ) from colon explants (C57Bl/6 mice [3]; [13]): induction of both Th1 and 2 cytokines
histological pathology of the colon (C57Bl/6 mice [3]; [13]): CD1d-dependent pathology was observed
Cyp1a1 transcripts (MODE-K cells [4]): induced expression of these genes in vitro and in vivo
Ido1 transcripts (MODE-K cells [4]; [14]): induced expression of these genes in vitro and in vivo
IDO1 enzymatic activity (human IDO1(hIDO1)): IDO1 activators
metabolite that D5-Trp was further metabolized to upon stimulation (IECs): xanthurenic acid
anti-gyrase activity (DNA gyrase): no anti-gyrase activity
compound induced inhibition of IL-10 production in hepatocytes from Ahr−/− mice (primary hepatocytes): resistance

ability of IDO1 to convert tryptophan to formyl-kyneurenine (recombinant IDO1): enhanced
compound induced inhibition of IL-10 production in hepatocytes from Ahr−/− mice (primary hepatocytes): resistance
SMILES: CCO/C=C1\N=C(c2ccccc2)OC1=O [oxazolone, 4-ethoxymethylene-2-phenyl-2-oxazolin-5-one]
compound induced reduction of cell surface CD1d lipid antigen loading when AhR expression is silenced (MODE-K cells [1]): reversed
loading of α-GC on CD1d at the cell surface (L363 staining) (MODE-K cells [1]; MODE-K cells conditioned with compound): decreased loading of α-GC on CD1d at the cell surface; also recorded: decreased cell surface staining
AhR transcriptional activity [5]: induced robust AhR transcriptional activity
compound induced inhibition of CD1d-restricted IL-10 production when AhR expression is silenced (MODE-K cells [2]): reversed
CD1d-restricted IL-10 production (MODE-K cells [2]; [10]): no longer attenuated
CD1d-restricted IL-10 production (MODE-K cells [2]; MODE-K pre-conditioned with compound, loaded with α-GC, co-culture with 24.7 iNKT hybridoma): attenuated IL-10 production; also recorded: limited
epithelial derived IL-10 (MODE-K cells [2]; co-culture with autoreactive iNKT cell hybridoma (24.8)): suppressed
epithelial derived IL-10 (MODE-K cells [2]; co-culture with autoreactive non-invariant dNKT cell hybridoma (14S.6)): suppressed
IL-10 production (MODE-K cells [2]): decreased IL-10 production
decrease of IL-10 production when AhR was silenced (MODE-K cells [2]): reduced when AhR was silenced
CD1d-restricted IL-10 production (MODE-K cells [2]; [11]): attenuation of CD1d-restricted IL-10 production
IFN-γ production [6]: not affected
IL-10 production in colonic explants (C57Bl/6 mice [3]): elevated IL-10 production
host protection, disease manifestations (C57Bl/6 mice [3]; intra-rectal challenge): conferred host protection
weight loss (C57Bl/6 mice [3]; intra-rectal challenge): diminished weight loss
effect of skin pre-sensitization with the other compound (oxazolone or TMO) on rectal responses (C57Bl/6 mice [3]; topical sensitization followed by intra-rectal challenge): did not affect
Ido1 transcripts [7]: increased transcripts
Mttp transcripts [7]: decreased transcripts
cyp1a1 transcripts [7]: increased transcripts
Ido1 transcripts (MODE-K cells [4]; [14]): induction; also recorded: induced expression of these genes in vitro and in vivo
Mttp transcripts (MODE-K cells [4]; [14]): down-regulation
CD1d protein expression or distribution between intracellular and cell surface pools (MODE-K cells [8]): did not display altered CD1d protein expression or distribution
metabolite that D5-Trp was further metabolized to upon stimulation (IECs): kyneurenic acid
inflammation in animals under GF conditions (C57Bl/6 mice [9]): induce inflammation
